# Laboratory results taken from patent publication US7960415B2, “Caspase inhibitors and uses thereof” (Vertex Pharmaceutical Incoporated, priority 2003, dated 2011).
# Columns and labels:
# [1] = test system: Jurkat E6.1 cells; assay: Anti-Fas induced apoptosis assay; assay type: cell-based; conditions: Homo sapiens, anti-Fas antibody CH-11 10 ng/ml, 16-18 hrs, DNA fragmentation
# Description: Cellular apoptosis may be induced by the binding of Fas ligand (FasL) to its receptor, CD95 (Fas). CD95 is one of a family of related receptors, known as death receptors, which can trigger apoptosis in cells via activation of the caspase enzyme cascade. The process is initiated by the binding of the adapter molecule FADD/MORT-1 to the cytoplasmic domain of the CD-95 receptor-ligand complex. Caspase-8 then binds FADD and becomes activated, initiating a cascade of events that involve the activation of downstream caspases and subsequent cellular apoptosis. Apoptosis can also be induced in cells expressing CD95 e.g., the Jurkat E6.1 T cell lymphoma cell line, using an antibody, rather than FasL, to crosslink the cell surface CD95. Anti-Fas-induced apoptosis is also triggered via the activation of caspase-8. This provides the basis of a cell based assay to screen compounds for inhibition of the caspase-8-mediated apoptotic pathway.
# Jurkat E6.1 cells are cultured in complete medium consisting of RPMI-1640 (Sigma No)+10% foetal calf serum (Gibco BRL No. 10099-141)+2 mM L-glutamine (Sigma No. G-7513). The cells are harvested in log phase of growth. 100 ml of cells at 5-8×10^5 cells/ml are transferred to sterile 50 ml Falcon centrifuge tubes and centrifuged for 5 minutes at 100×g at room temperature. The supernatant is removed and the combined cell pellets resuspended in 25 ml of complete medium. The cells are counted and the density adjusted to 2×10^6 cells/ml with complete medium.
# The test compound is dissolved in dimethyl sulfoxide (DMSO)(Sigma No. D-2650) to give a 100 mM stock solution. This is diluted to 400 μM in complete medium, then serially diluted in a 96-well plate prior to addition to the cell assay plate.
# 100 μl of the cell suspension ([…]) is added to each well of a sterile 96-well round-bottomed cluster plate (Costar No. 3790). 50 μl of compound solution at the appropriate dilution and 50 μl of anti-Fas antibody, clone CH-11 (Upstate, Cat No. 1 544 675) at a final concentration of 10 ng/ml, are added to the wells. Control wells are set up minus antibody and minus compound but with a serial dilution of DMSO as vehicle control. The plates are incubated for 16-18 hrs at 37° C. in 5% CO2 and 95% humidity.
# Apoptosis of the cells is measured by the quantitation of DNA fragmentation using a ‘Cell Death Detection Assay’ from Roche diagnostics, No. 1544 675. After incubation for 16-18 hrs the assay plates are centrifuged at 100×g at room temperature for 5 minutes. 150 μl of the supernatant are removed and replaced by 150 μl of fresh complete medium. The cells are then harvested and 200 μl of the lysis buffer supplied in the assay kit are added to each well. The cells are triturated to ensure complete lysis and incubated for 30 minutes at 4° C. The plates are then centrifuged at 1900×g for 10 minutes and the supernatants diluted 1:20 in the incubation buffer provided. 100 μl of this solution is then assayed according to the manufacturer's instructions supplied with the kit. OD405 nm is measured 20 minutes after addition of the final substrate in a SPECTRAmax Plus plate reader (Molecular Devices). OD405 nm is plotted versus compound concentration and the IC50 values for the compounds are calculated using the curve-fitting program SOFTmax Pro (Molecular Devices) using the four parameter fit option.
# [2] = test system: IL-1β secretion from human whole blood; assay: Inhibition of IL-1β secretion from whole blood; assay type: cell-based; conditions: human whole blood diluted 1:2, LPS 5 ng/ml, 18 hours, ELISA
# Method: Human blood is freshly drawn from healthy donors and diluted 1:2 in PBS. To 500 μl of diluted blood […] of prediluted test compound in RPMI medium and […] LPS (5 ng/ml final concentration on the plate) are added (LPS, Serotype 0111:B4, Sigma L3012). After stimulation for 18 hours supernatants are collected and assayed for IL-1β levels using the appropriate ELISA kit (R&D systems).
# [3] = test system: rat cortical neurons; assay: Hypoxia-induced apoptosis of rat cortical neurons; assay type: cell-based, Wistar rat; conditions: Cortical neurone, 95% N2/5% CO2, Cell Death Detection ELISA (DNA fragmentation)
# Method: Cortical neurons are dissociated from Wistar rat embryos (E17) by a modification of the procedure of Rogers et al. 1997, Brain Res. Bulletin, 44:131. Briefly, cerebral cortices are isolated aseptically from 15-20 Wistar rat embryos. A cell suspension is prepared by mincing the cerebral cortices and digesting them with papain. Cells are washed with ovomucoid enzyme inhibitor and DNaseI and plated onto Poly-D lysine coated plates in high glucose DMEM containing 10% heat-inactivated fetal calf serum, L-glutamine, penicillin and streptomycin. The yield of neurons is […] per embryo and they are 80-90% viable as assessed by Trypan blue exclusion.
# The neurons are cultured in complete medium at 37° C. in a normal atmosphere for 48 hours prior to the hypoxia experiments. For hypoxia, the normal cell medium is replaced by oxygen-depleted serum-free medium. Cells are incubated in an atmosphere of 95% N2/5% CO2 for various lengths of time. Compounds are dissolved in DMSO at 100 mM then diluted in medium and added to the culture from time=0. The level of apoptosis is measured using a Cell Death Detection ELISA kit (Roche) which detects DNA fragmentation. Plates are read at 405 nm. Controls included cells cultured in aerobic conditions in serum-containing medium (+serum) and cells cultured in aerobic conditions in serum-deprived medium (−serum).
Structure (SMILES),IC50 [1],IC50 [2],IC50 [3]
"CC[C@@H](C(=O)N[C@@H](CC(=O)O)C(=O)COc1c(F)c(F)cc(F)c1F)n1cc(C(F)(F)F)cc(NS(=O)(=O)CC)c1=O [Compound 22, (S,S)-3-[2-(3-Ethanesulfonylamino-2-oxo-5-trifluoromethyl-2H-pyridin-1-yl)-butyrylamino]-4-oxo-5-(2,3,5,6-tetrafluoro-phenoxy)-pentanoic acid]",< 0.5 µM,0.5 to 5 µM,< 1 µM
"CCC(=O)Nc1cccn([C@@H](CC)C(=O)NC(CC(=O)O)C(=O)CF)c1=O (stereo partly drawn) [Compound 29, (S)-5-Fluoro-4-oxo-3-[2-(2-oxo-3-propionylamino-2H-pyridin-1-yl)-butyrylamino]-pentanoic acid]",< 0.5 µM,< 0.5 µM,1 to 10 µM
"CCC(=O)Nc1cccn([C@@H](CC(C)C)C(=O)NC(CC(=O)O)C(=O)CF)c1=O (stereo partly drawn) [Compound 36, (S)-5-Fluoro-3-[4-methyl-2-(2-oxo-3-propionylamino-2H-pyridin-1-yl)-pentanoylamino]-4-oxo-pentanoic acid]",0.5 to 2 µM,0.5 to 5 µM,1 to 10 µM
